# Assay results reported in patent publication US11919887B2, “Substituted tetrahydrofurans as modulators of sodium channels” (Vertex Pharmaceuticals Incorporated, priority 2019, dated 2024).
# pIC50: −log10 of the molar value.
# Target: human Nav 1.8 (Homo sapiens, UniProt Q9Y5Y9)
# Assay: E-VIPR assay detecting and measuring Nav inhibition (HEK cells expressing truncated human Nav 1.8)
# Format: cell-based
# Conditions: in the Presence of Human Serum in the E-VIPR Assay; read-out: IC50
# Text: Sodium ion channels are voltage-dependent proteins that can be activated by inducing membrane voltage changes by applying electric fields. The electrical stimulation instrument and methods of use, referred to as E-VIPR, are described in International Publication No. WO 2002/008748 A3 and C.-J. Huang et al. Characterization of voltage-gated sodium channel blockers by electrical stimulation and fluorescence detection of membrane potential, 24 Nature Biotech. 439-46 (2006), both of which are incorporated by reference in their entirety. The instrument comprises a microtiter plate handler, an optical system for exciting the coumarin dye while simultaneously recording the coumarin and oxonol emissions, a waveform generator, a current- or voltage-controlled amplifier, and parallel electrode pairs that are inserted into assay plate wells. Under integrated computer control, this instrument passes user-programmed electrical stimulus protocols to cells within the wells of the microtiter plate.
# 16-20 hours prior to running the assay on E-VIPR, HEK cells expressing a truncated form of human Nav 1.8 with full channel activity were seeded into microtiter 384-well plates, pre-coated with matrigel, at a density of 25,000 cells per well. 2.5-5% KIR2.1 Bacmam virus was added to the final cell suspension before seeding into cell plates. HEK cells were grown in Dulbecco's Modified Eagle's Medium (DMEM) supplemented with 10% FBS (Fetal Bovine Serum, qualified; Sigma #F4135), 1% NEAA (Non-Essential Amino Acids, Gibco #11140), 1% HEPES (Gibco #15630), 1% Pen-Strep (Penicillin-Streptomycin; Gibco #15140) and 5 μg/ml Blasticidin (Gibco #R210-01). Cells were expanded in vented cap cell culture flasks, with 90-95% humidity and 5% CO2.
# Human Serum (HS, Millipore #S1P1-01KL, or Sigma SLBR5469V and SLBR5470V as a 50%/50% mixture, for 25% assay final concentration)
# Bath1 Buffer: • Sodium Chloride 160 mM (9.35 g/L), Potassium Chloride, 4.5 mM (0.335 g/L), Glucose 10 mM (1.8 g/L), Magnesium Chloride (Anhydrous) 1 mM (0.095 g/L), Calcium Chloride 2 mM (0.222 g/L), HEPES 10 mM (2.38 g/L) in water.
# Na/TMA Cl Bath1 Buffer: • Sodium Chloride 96 mM (5.61 g/L), Potassium Chloride 4.5 mM (0.335 g/L), Tetramethylammonium (TMA)-Cl 64 mM (7.01 g/L), Glucose 10 mM (1.8 g/L), Magnesium Chloride (Anhydrous) 1 mM (0.095 g/L), Calcium Chloride 2 mM (0.222 g/L) HEPES 10 mM (2.38 g/L) in water.
# Hexyl Dye Solution (2× concentration): • Bath1 Buffer containing 0.5% β-cyclodextrin (made fresh prior to each use, Sigma #C4767), 8 μM CC2-DMPE and 2 μM DiSBAC6(3). The solution was made by adding 10% Pluronic F127 stock equal to combined volumes of CC2-DMPE and DiSBAC6(3). The order of preparation was first mix Pluronic and CC2-DMPE, then add DiSBAC6(3), then while vortexing add Bath1/β-Cyclodextrin.
# Compound Loading Buffer (2×concentration): Na/TMA Cl Bath1 Buffer containing HS (omitted in experiments run in the absence of human serum (HS)) 50%, VABSC-1 1 mM, BSA 0.2 mg/ml (in Bath-1), KCl 9 mM, DMSO 0.75%.
# Assay Protocol (7 Key Steps): • 1) To reach the final concentration in each well, 400 nL of each compound was pre-spotted (in neat DMSO) into polypropylene compound plates at 250×desired final concentration from an intermediate stock concentration of 0.075 mM, in an 11 point dose response, 3-fold dilution, resulting in a top dose of 300 nM final concentration in the cell plate. Vehicle control (neat DMSO), and positive control (an established Nav1.8 inhibitor, 25 μM final in assay in DMSO) were added manually to the outermost columns of each plate respectively. The compound plate was backfilled with 45 μL per well of Compound Loading Buffer resulting in a 250 fold dilution of compound following a 1:1 transfer of compound into the cell plate (see Step 6). Final DMSO concentration for all wells in the assay was 0.625% (0.75% DMSO was supplemented to the Compound Loading Buffer for a final DMSO concentration of 0.625%). […]
# human Nav 1.8, sequence (Q9Y5Y9 whole entry, looked up, the tested form may be a part): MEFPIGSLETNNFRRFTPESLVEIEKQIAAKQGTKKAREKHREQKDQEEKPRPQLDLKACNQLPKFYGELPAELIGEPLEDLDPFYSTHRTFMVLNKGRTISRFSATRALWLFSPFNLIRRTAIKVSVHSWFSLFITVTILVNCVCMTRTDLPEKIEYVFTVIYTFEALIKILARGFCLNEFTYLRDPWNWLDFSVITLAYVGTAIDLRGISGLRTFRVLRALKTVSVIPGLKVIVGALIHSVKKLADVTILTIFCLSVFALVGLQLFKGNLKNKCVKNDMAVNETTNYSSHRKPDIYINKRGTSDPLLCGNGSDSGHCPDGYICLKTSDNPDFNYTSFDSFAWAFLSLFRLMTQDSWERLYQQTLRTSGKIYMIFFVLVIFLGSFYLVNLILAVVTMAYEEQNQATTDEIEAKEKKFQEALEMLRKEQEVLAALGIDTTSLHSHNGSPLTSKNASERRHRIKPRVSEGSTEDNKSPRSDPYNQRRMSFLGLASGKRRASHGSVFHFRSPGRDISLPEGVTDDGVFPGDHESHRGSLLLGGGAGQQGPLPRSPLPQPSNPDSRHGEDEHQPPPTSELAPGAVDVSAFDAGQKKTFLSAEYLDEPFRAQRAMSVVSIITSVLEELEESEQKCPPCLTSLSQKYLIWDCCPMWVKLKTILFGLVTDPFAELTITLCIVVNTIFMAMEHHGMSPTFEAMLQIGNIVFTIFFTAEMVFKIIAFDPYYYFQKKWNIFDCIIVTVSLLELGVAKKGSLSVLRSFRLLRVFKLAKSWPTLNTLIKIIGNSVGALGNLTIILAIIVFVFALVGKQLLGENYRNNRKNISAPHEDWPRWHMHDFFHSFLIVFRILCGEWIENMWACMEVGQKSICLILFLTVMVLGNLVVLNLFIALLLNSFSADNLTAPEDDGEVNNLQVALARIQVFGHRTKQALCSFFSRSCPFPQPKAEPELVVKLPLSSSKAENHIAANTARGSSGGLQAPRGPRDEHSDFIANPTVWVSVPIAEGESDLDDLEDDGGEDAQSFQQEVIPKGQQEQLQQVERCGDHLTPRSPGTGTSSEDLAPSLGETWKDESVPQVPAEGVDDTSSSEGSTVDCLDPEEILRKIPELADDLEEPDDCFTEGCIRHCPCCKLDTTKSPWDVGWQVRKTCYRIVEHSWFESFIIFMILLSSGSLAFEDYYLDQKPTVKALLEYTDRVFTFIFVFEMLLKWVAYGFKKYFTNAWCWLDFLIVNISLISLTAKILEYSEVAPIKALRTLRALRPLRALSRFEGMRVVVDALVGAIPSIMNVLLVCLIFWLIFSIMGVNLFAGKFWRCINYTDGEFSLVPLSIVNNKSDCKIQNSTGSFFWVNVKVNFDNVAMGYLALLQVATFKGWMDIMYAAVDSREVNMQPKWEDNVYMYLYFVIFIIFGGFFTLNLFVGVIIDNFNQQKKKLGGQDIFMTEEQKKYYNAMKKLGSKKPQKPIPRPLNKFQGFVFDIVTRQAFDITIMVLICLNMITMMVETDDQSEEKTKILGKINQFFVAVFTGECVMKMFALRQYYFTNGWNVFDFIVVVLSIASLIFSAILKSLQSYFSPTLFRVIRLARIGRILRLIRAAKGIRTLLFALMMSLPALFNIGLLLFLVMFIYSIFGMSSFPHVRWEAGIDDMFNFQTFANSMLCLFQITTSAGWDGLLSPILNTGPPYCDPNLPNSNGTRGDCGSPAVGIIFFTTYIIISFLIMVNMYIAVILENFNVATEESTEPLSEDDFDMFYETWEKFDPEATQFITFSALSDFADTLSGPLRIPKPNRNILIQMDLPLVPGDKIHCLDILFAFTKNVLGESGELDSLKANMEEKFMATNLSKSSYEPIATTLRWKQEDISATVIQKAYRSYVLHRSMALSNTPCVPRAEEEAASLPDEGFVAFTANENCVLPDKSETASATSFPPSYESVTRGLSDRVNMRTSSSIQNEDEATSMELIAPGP
row,SMILES,pIC50
1,"COc1cc(F)ccc1[C@@H]1[C@@H](C)[C@@](C)(C(F)(F)F)O[C@H]1C(=O)Nc1ccnc(C(N)=O)c1 (single isomer, unassigned) [Compound 36]",< 6.00
2,"COc1cc(F)ccc1[C@@H]1[C@@H](C(=O)Nc2ccnc(C(N)=O)c2)O[C@@](C)(C(F)(F)F)[C@H]1C (single isomer, unassigned) [Compound 37]",6.00 to 7.00
3,"COc1cc(F)ccc1[C@@H]1[C@@H](C(=O)Nc2ccnc(C(N)=O)c2)O[C@](C)(C(F)(F)F)[C@H]1C (single isomer, unassigned) [Compound 38]",< 6.00
4,"COc1cc(F)ccc1[C@@H]1[C@@H](C)[C@](C)(C(F)(F)F)O[C@H]1C(=O)Nc1ccnc(C(N)=O)c1 (single isomer, unassigned) [Compound 39]",6.00 to 7.00
5,"COc1cc(F)ccc1[C@H]1[C@H](C(=O)Nc2ccnc(C(N)=O)c2)O[C@](C)(C(F)(F)F)[C@H]1C (single isomer, unassigned) [Compound 40]",< 6.00
6,"COc1cc(F)ccc1[C@@H]1[C@@H](C(=O)Nc2ccnc(C(N)=O)c2)O[C@@](C)(C(F)(F)F)[C@@H]1C (single isomer, unassigned) [Compound 41]",7.00 to 8.00
7,"COc1c([C@H]2[C@H](C(=O)Nc3ccnc(C(N)=O)c3)O[C@@](C)(C(F)(F)F)[C@H]2C)ccc(F)c1C(F)F (single isomer, unassigned) [Compound 44]",> 8.00
8,"COc1c([C@@H]2[C@@H](C(=O)Nc3ccnc(C(N)=O)c3)O[C@](C)(C(F)(F)F)[C@@H]2C)ccc(F)c1C(F)F (single isomer, unassigned) [Compound 45]",7.00 to 8.00
9,"COc1c([C@H]2C[C@@](C)(C(F)(F)F)O[C@@H]2C(=O)Nc2ccc(F)c(C(N)=O)c2)ccc(F)c1F (single isomer, unassigned) [Compound 46]",< 6.00
10,"COc1c([C@@H]2C[C@](C)(C(F)(F)F)O[C@H]2C(=O)Nc2ccc(F)c(C(N)=O)c2)ccc(F)c1F (single isomer, unassigned) [Compound 47]",7.00 to 8.00
11,"CNC(=O)c1cc(NC(=O)[C@H]2O[C@](C)(C(F)(F)F)C[C@@H]2c2ccc(F)c(Cl)c2OC)ccn1 (single isomer, unassigned) [Compound 58]",< 6.00
12,"CNC(=O)c1cc(NC(=O)[C@@H]2O[C@](C)(C(F)(F)F)C[C@H]2c2ccc(F)c(Cl)c2OC)ccn1 (single isomer, unassigned) [Compound 59]",< 6.00
13,"CNC(=O)c1cc(NC(=O)[C@@H]2O[C@@](C)(C(F)(F)F)C[C@H]2c2ccc(F)c(Cl)c2OC)ccn1 (single isomer, unassigned) [Compound 60]",7.00 to 8.00
14,"CNC(=O)c1cc(NC(=O)[C@H]2O[C@@](C)(C(F)(F)F)C[C@@H]2c2ccc(F)c(Cl)c2OC)ccn1 (single isomer, unassigned) [Compound 61]",6.00 to 7.00
15,"COc1c([C@H]2C[C@@H](C(C)(C)C)O[C@@H]2C(=O)Nc2ccnc(C(N)=O)c2)ccc(F)c1F (single isomer, unassigned) [Compound 65]",< 6.00
16,"COc1c([C@@H]2C[C@H](C(C)(C)C)O[C@H]2C(=O)Nc2ccnc(C(N)=O)c2)ccc(F)c1F (single isomer, unassigned) [Compound 66]",6.00 to 7.00
17,"COc1cc(F)ccc1[C@H]1C[C@@](C)(C(F)(F)F)O[C@H]1C(=O)Nc1ccnc(C(N)=O)c1 (single isomer, unassigned) [Compound 69]",< 6.00
18,"COc1c([C@H]2C[C@@](C)(C(F)(F)F)O[C@@H]2C(=O)Nc2ccnc(C(N)=O)c2)ccc(F)c1C (single isomer, unassigned) [Compound 71]",< 6.00
19,"COc1c([C@@H]2C[C@](C)(C(F)(F)F)O[C@H]2C(=O)Nc2ccnc(C(N)=O)c2)ccc(F)c1C (single isomer, unassigned) [Compound 72]",7.00 to 8.00

row,SMILES,pIC50
1,"Cc1c(F)ccc([C@H]2C[C@@](C)(C(F)(F)F)O[C@@H]2C(=O)Nc2ccnc(C(N)=O)c2)c1F (single isomer, unassigned) [Compound 75]",< 6.00
2,"Cc1c(F)ccc([C@@H]2C[C@](C)(C(F)(F)F)O[C@H]2C(=O)Nc2ccnc(C(N)=O)c2)c1F (single isomer, unassigned) [Compound 76]",6.00 to 7.00
3,"CCc1c(F)ccc([C@H]2C[C@@](C)(C(F)(F)F)O[C@@H]2C(=O)Nc2ccnc(C(N)=O)c2)c1OC (single isomer, unassigned) [Compound 77]",< 6.00
4,"CCc1c(F)ccc([C@@H]2C[C@](C)(C(F)(F)F)O[C@H]2C(=O)Nc2ccnc(C(N)=O)c2)c1OC (single isomer, unassigned) [Compound 78]",7.00 to 8.00
5,"COc1c([C@@H]2C[C@@](C)(CC(F)(F)F)O[C@H]2C(=O)Nc2ccnc(C(N)=O)c2)ccc(F)c1F (single isomer, unassigned) [Compound 80]",< 6.00
6,"COc1c([C@@H]2C[C@](C)(CC(F)(F)F)O[C@H]2C(=O)Nc2ccnc(C(N)=O)c2)ccc(F)c1F (single isomer, unassigned) [Compound 81]",6.00 to 7.00
7,"COc1c([C@H]2C[C@@](C)(CC(F)(F)F)O[C@@H]2C(=O)Nc2ccnc(C(N)=O)c2)ccc(F)c1F (single isomer, unassigned) [Compound 82]",< 6.00
8,"COc1c([C@H]2C[C@](C)(CC(F)(F)F)O[C@@H]2C(=O)Nc2ccnc(C(N)=O)c2)ccc(F)c1F (single isomer, unassigned) [Compound 83]",6.00 to 7.00
9,"COc1c([C@@H]2C[C@@](C)(C(C)(F)F)O[C@H]2C(=O)Nc2ccnc(C(N)=O)c2)ccc(F)c1F (single isomer, unassigned) [Compound 84]",< 6.00
10,"COc1c([C@H]2C[C@@](C)(C(C)(F)F)O[C@@H]2C(=O)Nc2ccnc(C(N)=O)c2)ccc(F)c1F (single isomer, unassigned) [Compound 85]",< 6.00
11,"COc1c([C@@H]2C[C@](C)(C(C)(F)F)O[C@H]2C(=O)Nc2ccnc(C(N)=O)c2)ccc(F)c1F (single isomer, unassigned) [Compound 86]",< 6.00
12,"COc1c([C@H]2C[C@](C)(C(C)(F)F)O[C@@H]2C(=O)Nc2ccnc(C(N)=O)c2)ccc(F)c1F (single isomer, unassigned) [Compound 87]",6.00 to 7.00
13,"CC(C)Oc1c([C@@H]2[C@@H](C(=O)Nc3ccnc(C(N)=O)c3)O[C@](C)(C(F)(F)F)[C@@H]2C)ccc(F)c1F (single isomer, unassigned) [Compound 88]",< 6.00
14,"CC(C)Oc1c([C@H]2[C@H](C(=O)Nc3ccnc(C(N)=O)c3)O[C@@](C)(C(F)(F)F)[C@H]2C)ccc(F)c1F (single isomer, unassigned) [Compound 89]",> 8.00
15,"C[C@@H]1[C@H](c2ccc(F)c(F)c2)[C@@H](C(=O)Nc2ccnc(C(N)=O)c2)O[C@]1(C)C(F)(F)F (single isomer, unassigned) [Compound 90]",< 6.00
16,"C[C@H]1[C@@H](c2ccc(F)c(F)c2)[C@H](C(=O)Nc2ccnc(C(N)=O)c2)O[C@@]1(C)C(F)(F)F (single isomer, unassigned) [Compound 91]",6.00 to 7.00
17,"CC[C@@H]1[C@H](c2ccc(F)c(F)c2OC)[C@@H](C(=O)Nc2ccnc(C(N)=O)c2)O[C@]1(C)C(F)(F)F (single isomer, unassigned) [Compound 92]",< 6.00
18,"CC[C@H]1[C@@H](c2ccc(F)c(F)c2OC)[C@H](C(=O)Nc2ccnc(C(N)=O)c2)O[C@@]1(C)C(F)(F)F (single isomer, unassigned) [Compound 93]",> 8.00
